From patent US20240025852A1, “T-TYPE CALCIUM CHANNEL MODULATORS AND METHODS OF USE THEREOF” (PRAXIS PRECISION MEDICINES, INC., priority 2020, published 2024)

Assays:
[1] = Hμrel Low Clearance Assay; type: in vitro ADME, human; set-up: % of Control (intrinsic clearance relative to the control compound): tested at 1 µM; conditions: HμRELhumanPool 96-well hepatic co-culture, human hepatic co-culture, 1 μM substrate, 0-72 hr incubation, control = geometric mean of 3 replicates
Protocol: (§1) The Hμrel Low Clearance Assay was performed to determine the stability of deuterated compounds described herein and calculate changes in clearance relative to the control compound (undeuterated compound) that has the following structure:
(§2) HμRELhumanPool™ 96-well hepatic co-culture plates were media changed and cells were allowed to acclimatize at 37° C. for 20 hr. HμREL® incubation media (serum free) and test compound diluted from a 1000×DMSO stock (final substrate concentration 1 μM; final DMSO concentration 0.1%) were added to the HμREL© 96-well co-culture system at a final cell number of 30,000 cells per well to initiate the reaction. The final incubation volume was 80 μL per time point and two control compounds were included for reference (ketoprofen and prednisolone). All clearance assessments were performed in singlicate with the exception of the undeuterated control compound, which was tested in duplicate on two separate days for a total of 4 replicates. Each compound was incubated for 0, 2, 6, 24, 48 and 72 hr. The reactions were terminated by transferring 60 μL of incubate to 180 μL acetonitrile containing internal standard at the appropriate time points. The crash plates were centrifuged at 3000 rpm at 4° C. for 20 min to precipitate residual protein. Following protein precipitation, sample supernatants were combined in cassettes of up to 4 compounds and analyzed using generic LCMS/MS conditions.
(§3) LC-MS/MS chromatograms were analyzed by peak area ratio (test article peak area/internal standard peak area) and natural log transformed, and plotted against time. The slope of the line was determined to calculate elimination rate constant. Subsequently, half-life (t1/2) and intrinsic clearance (CLint) were calculated using the following equations: […]
(§4) Average clearance of the control compound was determined by taking the geometric mean of 3 of the four replicates. The fourth replicate was excluded from the average determination as an outlier.

[2] = test system: HμRELhumanPool 96-well hepatic co-culture; experiment: Hμrel Low Clearance Assay; type: in vitro ADME, human; set-up: % of Control (intrinsic clearance relative to the control compound): tested at 1 µM; conditions: for Half-Life: human hepatic co-culture, 1 μM substrate, 0-72 hr incubation; for % of Control (intrinsic clearance relative to the control compound): observed CLint divided by average CLint of undeuterated control compound
Protocol: as §1, §2, §3, §4

[3] = molecular target: T1, Recombinant CYP3A4 Supersomes (Homo sapiens, UniProt P08684); experiment: Recombinant CYP3A4 Clearance Assay; type: in vitro ADME; conditions: for % of Control (intrinsic clearance relative to the control compound): observed CLint divided by average CLint of undeuterated control compound; for Half-Life / CLint: recombinant CYP3A4 50 pmol/mL, 1 μM substrate, NADPH; for Half-Life: 0-120 minutes; for CLint: control = geometric mean of 3 replicates
T1 construct: purchased
Protocol: The CYP3A4 Clearance Assay was performed to determine the stability of deuterated compounds described herein and calculate changes in clearance relative to the control compound (undeuterated compound) that has the following structure:
Recombinant CYP3A4 Supersomes were prepared in 100 mM potassium phosphate buffer (50 pmol/mL final recombinase) and 80 μL aliquots were delivered per well to 96-well reaction plates containing 10 μL/well stock working solution containing substrate at 10× final concentration in 0.1:9.9:90 DMSO:ACN:100 mM phosphate buffer. Final substrate concentration during incubation was 1 μM. Reaction mixtures were pre-incubated at 37° C. for 10 minutes, prior to addition of 10 μL/well of NADPH regenerating system to initiate the reaction (β-Nicotinamide adenine dinucleotide phosphate) or 100 mM phosphate as a buffer control.
Clearance assessments were performed for test compounds in singlicate except for the control compound, which was tested in triplicate. Incubations were maintained at 37° C. for 0, 5, 15, 30, 45, 60, 90, and 120 minutes (or 0 and 120 minutes for buffer control). The reactions were terminated with 3× volume of cold (4° C.) acetonitrile (ACN) containing 200 ng/mL tolbutamide and 200 ng/mL labetalol as internal standards (IS). The crash plates were centrifuged at 4000 rpm at 4° C. for 20 min to precipitate residual protein. Following protein precipitation, sample supernatants were harvested and 3× volume of HPLC grade water was added to each sample for chromatography purposes. Plates were sealed and shaken for 10 minutes prior to LC-MS/MS analysis using generic LCMS/MS conditions.
as §3
Average intrinsic clearance of the control compound was determined by taking the geometric mean of 3 replicates.

T1 sequence (P08684 whole entry): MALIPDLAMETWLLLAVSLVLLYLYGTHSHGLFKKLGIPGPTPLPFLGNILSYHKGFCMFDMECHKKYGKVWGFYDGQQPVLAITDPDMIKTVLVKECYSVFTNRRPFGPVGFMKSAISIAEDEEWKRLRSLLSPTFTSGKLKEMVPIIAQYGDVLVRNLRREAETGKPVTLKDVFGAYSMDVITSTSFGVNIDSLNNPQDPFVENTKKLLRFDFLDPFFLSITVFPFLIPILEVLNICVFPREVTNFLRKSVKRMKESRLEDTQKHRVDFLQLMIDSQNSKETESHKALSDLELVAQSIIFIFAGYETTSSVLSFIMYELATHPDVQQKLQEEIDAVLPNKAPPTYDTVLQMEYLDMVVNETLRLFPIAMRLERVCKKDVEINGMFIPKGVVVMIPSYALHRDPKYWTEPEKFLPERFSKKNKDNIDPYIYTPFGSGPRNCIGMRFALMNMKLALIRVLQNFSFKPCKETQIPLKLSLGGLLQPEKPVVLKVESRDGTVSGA

SMILES	hepatocyte CLint at 1 μM ([1]; human) [µL/min/1e6 cells]	Half-Life [2] [h]	% of Control (intrinsic clearance relative to the control compound) [2] [%]	% of Control (intrinsic clearance relative to the control compound) [3] [%]	Half-Life [3] [h]	CLint [3] [µL/min/pmol]	hepatocyte CLint at 1 μM [1] [µL/min/1e6 cells]
[2H]C1([2H])N(CC(=O)NC(C)(C)C)C([2H])([2H])C([2H])([2H])C([2H])(CNC(=O)c2cc(F)cc(Cl)c2)C1([2H])[2H] [Compound 1, N-[[1-[2-(tert-butylamino)-2-oxo-ethyl]-2,2,3,3,4,5,5,6,6-nonadeuterio-4-piperidyl]methyl]-3-chloro-5-fluoro-benzamide]	0.539	57.17	38.1	65.3	0.202	1.15	
[2H]C1([2H])CC(CNC(=O)c2cc(F)cc(Cl)c2)CC([2H])([2H])N1CC(=O)NC(C)(C)C [Compound 2, N-[[1-[2-(tert-butylamino)-2-oxo-ethyl]-2,2,6,6-tetradeuterio-4-piperidyl]methyl]-3-chloro-5-fluoro-benzamide]		25.5	85.5	68.5	0.192	1.21	1.21
[2H]C1([2H])CN(CC(=O)NC(C)(C)C)CC([2H])([2H])C1CNC(=O)c1cc(F)cc(Cl)c1 [Compound 3, N-[[1-[2-(tert-butylamino)-2-oxo-ethyl]-3,3,5,5-tetradeuterio-4-piperidyl]methyl]-3-chloro-5-fluoro-benzamide]	1.47	21	104	82.3	0.16	1.45	
[2H]C([2H])(NC(=O)c1cc(F)cc(Cl)c1)C1CCN(CC(=O)NC(C)(C)C)CC1 [Compound 4, N-[[1-[2-(tert-butylamino)-2-oxo-ethyl]-4-piperidyl]-dideuterio-methyl]-3-chloro-5-fluoro-benzamide]	1.5	20.5	106	98.6	0.133	1.74	
[2H]C([2H])(NC(=O)c1cc(F)cc(Cl)c1)C1CCN(CC(=O)NC(C([2H])([2H])[2H])(C([2H])([2H])[2H])C([2H])([2H])[2H])CC1 [Compound 5, 3-chloro-N-[dideuterio-[1-[2-oxo-2-[[2,2,2-trideuterio-1,1-bis(trideuteriomethyl)ethyl]amino]ethyl]-4-piperidyl]methyl]-5-fluoro-benzamide]	1.32	23.33	93.3	94.1	0.14	1.66	
[2H]C([2H])(C(=O)NC(C)(C)C)N1CCC(CNC(=O)c2cc(F)cc(Cl)c2)CC1 [Compound 6, N-[[1-[2-(tert-butylamino)-1,1-dideuterio-2-oxo-ethyl]-4-piperidyl]methyl]-3-chloro-5-fluoro-benzamide]	1.41	21.83	99.6	77.2	0.17	1.36	
[2H]C([2H])([2H])C(C)(C)NC(=O)CN1CCC(CNC(=O)c2cc(F)cc(Cl)c2)CC1 [Compound 7, 3-chloro-5-fluoro-N-[[1-[2-oxo-2-[(2,2,2-trideuterio-1,1-dimethyl-ethyl)amino]ethyl]-4-piperidyl]methyl]benzamide]	1.41	21.83	99.6	100	0.132	1.76	
[2H]C1([2H])CN(CC(=O)NC(C([2H])([2H])[2H])(C([2H])([2H])[2H])C([2H])([2H])[2H])CC([2H])([2H])C1CNC(=O)c1cc(F)cc(Cl)c1 [Compound 8, 3-chloro-5-fluoro-N-[[3,3,5,5-tetradeuterio-1-[2-oxo-2-[[2,2,2-trideuterio-1,1-bis(trideuteriomethyl)ethyl]amino]ethyl]-4-piperidyl]methyl]benzamide]	1.28	24	90.5	88.4	0.148	1.56	
[2H]C1([2H])CN(CC(=O)NC(C)(C)C([2H])([2H])[2H])CC([2H])([2H])C1CNC(=O)c1cc(F)cc(Cl)c1 [Compound 9, 3-chloro-5-fluoro-N-[[3,3,5,5-tetradeuterio-1-[2-oxo-2-[(2,2,2-trideuterio-1,1-dimethyl-ethyl)amino]ethyl]-4-piperidyl]methyl]benzamide]	1.18	26.17	83.4	76.6	0.172	1.35	
[2H]C([2H])(NC(=O)c1cc(F)cc(Cl)c1)C1CCN(CC(=O)NC(C)(C)C([2H])([2H])[2H])CC1 [Compound 10, 3-chloro-N-[dideuterio-[1-[2-oxo-2-[(2,2,2-trideuterio-1,1-dimethyl-ethyl)amino]ethyl]-4-piperidyl]methyl]-5-fluoro-benzamide]	0.91	33.83	64.3	81.1	0.162	1.43	
[2H]C([2H])([2H])C(NC(=O)CN1C([2H])([2H])C([2H])([2H])C([2H])(CNC(=O)c2cc(F)cc(Cl)c2)C([2H])([2H])C1([2H])[2H])(C([2H])([2H])[2H])C([2H])([2H])[2H] [Compound 12, 3-chloro-5-fluoro-N-[[2,2,3,3,4,5,5,6,6-nonadeuterio-1-[2-oxo-2-[[2,2,2-trideuterio-1,1-bis(trideuteriomethyl)ethyl]amino]ethyl]-4-piperidyl]methyl]benzamide]	0.676	45.5	47.8	60.3	0.218	1.06	
[2H]C([2H])([2H])C(C)(NC(=O)CN1CCC(CNC(=O)c2cc(F)cc(Cl)c2)CC1)C([2H])([2H])[2H] [Compound 14, 3-chloro-5-fluoro-N-[[1-[2-oxo-2-[[2,2,2-trideuterio-1-methyl-1-(trideuteriomethyl)ethyl]amino]ethyl]-4-piperidyl]methyl]benzamide]	0.885	34.83	62.5	105	0.125	1.85	
